Data published in US9056865B2, “Pyridine-2-derivatives as smoothened receptor modulators” (Pfizer Inc., priority 2010, dated 2015).

How the values were obtained:
human Smo = human Smo (Homo sapiens (Human), UniProt Q99835); experiment: Smo radioligand competition binding assay; conditions: for inhibition at 0.05 µM: 0.05 μM test compound, read-out: Smo % inh. @ 0.05 μM
In short: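 Membranes from HEK293 cells expressing surface human Smo 181-781 (40 μg protein/well) incubated 2 h at room temperature with test compound and tritiated Smo antagonist (3 nM), pH 7.5 Tris buffer; filtration and scintillation counting. Non-specific binding defined with 30 μM cold antagonist; IC50 from four-parameter sigmoidal fit.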

Gli-Luc/MEF cells = experiment: Gli-Luc/MEF assay; format: cell-based, mouse; conditions: Mus musculus, MEF; Shh-stimulated luciferase, 48 hours
In short: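 Mouse embryonic fibroblasts from Gli-Luc transgenic mice (luciferase under Gli response element) dosed with compounds (final […], 3-fold series), then stimulated with recombinant mouse Shh at final 2 μg/mL. After 48 h at 37 °C, luminescence read by Bright-Glo; IC50 from inhibition of Shh-induced signal.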

human Smo, sequence (Q99835 181-787): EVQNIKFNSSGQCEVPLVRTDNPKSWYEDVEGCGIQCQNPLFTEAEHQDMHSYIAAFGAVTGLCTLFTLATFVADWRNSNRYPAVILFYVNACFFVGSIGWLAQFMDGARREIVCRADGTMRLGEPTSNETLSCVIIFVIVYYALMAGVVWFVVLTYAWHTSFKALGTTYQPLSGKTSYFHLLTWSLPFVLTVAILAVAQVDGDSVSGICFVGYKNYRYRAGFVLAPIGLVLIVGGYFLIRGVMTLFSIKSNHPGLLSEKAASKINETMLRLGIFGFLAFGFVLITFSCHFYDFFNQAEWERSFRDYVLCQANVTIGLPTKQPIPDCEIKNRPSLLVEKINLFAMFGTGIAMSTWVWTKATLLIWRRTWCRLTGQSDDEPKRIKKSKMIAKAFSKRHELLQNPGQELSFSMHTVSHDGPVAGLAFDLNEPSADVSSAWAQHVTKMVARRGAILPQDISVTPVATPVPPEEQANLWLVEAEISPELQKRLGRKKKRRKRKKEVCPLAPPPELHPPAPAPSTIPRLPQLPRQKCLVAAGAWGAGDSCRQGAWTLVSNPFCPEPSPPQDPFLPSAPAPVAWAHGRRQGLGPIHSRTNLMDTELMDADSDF

| SMILES | IC50 (human Smo) [nM] | inhibition at 0.05 µM (human Smo) [%] | IC50 (Gli-Luc/MEF cells) [nM] |
| --- | --- | --- | --- |
| COC(=O)N1CCN(c2cc(-c3ncc(C)cc3C)c(Cl)cn2)CC1 [Example A-101, methyl 4-(5′-chloro-3,5-dimethyl-2,4′-bipyridin-2′-yl)piperazine-1-carboxylate] | 72.4 | 89 | 30.2 |
| Cc1cnc(-c2cc(N3CCN(C(=O)CO)CC3)ncc2Cl)c(C)c1 [Example A-102, 2-[4-(5′-chloro-3,5-dimethyl-2,4′-bipyridin-2′-yl)piperazin-1-yl]-2-oxoethanol] | 57.9 | 84 | 60.1 |
| Cc1cnc(-c2cc(N3CCN(C(=O)CC(C)(C)O)CC3)ncc2Cl)c(C)c1 [Example A-103, 4-[4-(5′-chloro-3,5-dimethyl-2,4′-bipyridin-2′-yl)piperazin-1-yl]-2-methyl-4-oxobutan-2-ol] | 19.4 | 98 | 11.7 |
| Cc1cnc(-c2cc(N3CCN(S(C)(=O)=O)CC3)ncc2Cl)c(C)c1 [Example A-104, 5′-chloro-3,5-dimethyl-2′-[4-(methylsulfonyl)piperazin-1-yl]-2,4′-bipyridine] | 36 | 92.9 | 12.7 |
| Cc1cnc(-c2cc(N3CCN(C(=O)CN(C)C)CC3)ncc2Cl)c(C)c1 [Example A-105, 2-[4-(5′-chloro-3,5-dimethyl-2,4′-bipyridin-2′-yl)piperazin-1-yl]-N,N-dimethyl-2-oxoethanamine] | 82.4 | 84.5 | 12.3 |
| Cc1cnc(-c2cc(N3CCN(C(=O)CCO)CC3)ncc2Cl)c(C)c1 [Example A-106, 3-[4-(5′-chloro-3,5-dimethyl-2,4′-bipyridin-2′-yl)piperazin-1-yl]-3-oxopropan-1-ol] | 65.7 | 86 | 36.5 |
| Cc1cccnc1-c1cc(N2[C@@H]3CC[C@H]2CN(C(=O)CC(C)(C)O)C3)ncc1Cl [Example A-107, 1-[(1R,5S)-8-(5′-chloro-3-methyl-2,4′-bipyridin-2′-yl)-3,8-diazabicyclo[3.2.1]oct-3-yl]-3-hydroxy-3-methylbutan-1-one] | – | 82.7 | 41.5 |
| Cc1cc(F)cnc1-c1cc(N2CCC(NS(C)(=O)=O)CC2)ncc1Cl [Example A-108, N-[1-(5′-chloro-5-fluoro-3-methyl-2,4′-bipyridin-2′-yl)piperidin-4-yl]methanesulfonamide] | 20.8 | 91.5 | 11.2 |
| Cc1cc(Cl)cnc1-c1cc(N2CCC(NS(C)(=O)=O)CC2)ncc1Cl [Example A-109, N-[1-(5,5′-dichloro-3-methyl-2,4′-bipyridin-2′-yl)piperidin-4-yl]methanesulfonamide] | 20.5 | 97.4 | 6.81 |
| COCCS(=O)(=O)N1CCN(c2cc(-c3ncc(C)cc3C)c(Cl)cn2)CC1 [Example A-110, 5′-chloro-2′-{4-[(2-methoxyethyl)sulfonyl]piperazin-1-yl}-3,5-dimethyl-2,4′-bipyridine] | 29.2 | 94.4 | 12.4 |
| Cc1cnc(-c2cc(N3CCN(S(=O)(=O)CCO)CC3)ncc2Cl)c(C)c1 [Example A-111, 2-{[4-(5′-chloro-3,5-dimethyl-2,4′-bipyridin-2′-yl)piperazin-1-yl]sulfonyl}ethanol] | 23.3 | 95 | 10.2 |
| Cc1cnc(-c2cc(N3CCN(CCS(C)(=O)=O)CC3)ncc2Cl)c(C)c1 [Example A-112, 5′-chloro-3,5-dimethyl-2′-{4-[2-(methylsulfonyl)ethyl]piperazin-1-yl}-2,4′-bipyridine] | 124 | 72.9 | 25.3 |
| Cc1cnc(-c2cc(N3CCC(NC(=O)CO)CC3)ncc2Cl)c(C)c1 [Example A-113, N-[1-(5′-chloro-3,5-dimethyl-2,4′-bipyridin-2′-yl)piperidin-4-yl]-2-hydroxyacetamide] | 55.6 | 84 | 11.7 |
| Cc1cnc(-c2cc(N3CCC(NC(=O)CN(C)C)CC3)ncc2Cl)c(C)c1 [Example A-114, N-(1-(5′-chloro-3,5-dimethyl-[2,4′-bipyridin]-2′-yl)piperidin-4-yl)-2-(dimethylamino)acetamide] | 19.2 | 94.5 | 3.86 |
| Cc1ccc(-c2cccc(N3CCC(NS(C)(=O)=O)CC3)n2)nc1 [Example A-115, N-[1-(5′-methyl-2,2′-bipyridin-6-yl)piperidin-4-yl]methanesulfonamide] | 22 | 93 | 16 |
| Cc1ccc(-c2nc(N3CCC(NS(C)(=O)=O)CC3)ccc2Cl)nc1 [Example A-117, N-[1-(3-chloro-5′-methyl-2,2′-bipyridin-6-yl)piperidin-4-yl]methanesulfonamide] | 17 | 96 | 11 |

| SMILES | IC50 (human Smo) [nM] | inhibition at 0.05 µM (human Smo) [%] | IC50 (Gli-Luc/MEF cells) [nM] |
| --- | --- | --- | --- |
| Cc1cnc(-c2cc(N3CCC(CS(N)(=O)=O)CC3)ncc2Cl)c(C)c1 [Example A-118, 1-[1-(5′-chloro-3,5-dimethyl-2,4′-bipyridin-2′-yl)piperidin-4-yl]methanesulfonamide] | 11.1 | 93.8 | 8.46 |
| Cc1ccc(-c2nc(N3CCC(NS(C)(=O)=O)CC3)ncc2Cl)nc1 [Example A-119, N-{1-[5-chloro-4-(5-methylpyridin-2-yl)pyrimidin-2-yl]piperidin-4-yl}methanesulfonamide] | 58.9 | 88.5 | 22.9 |
| Cc1ccc(-c2nc(N3CCC(NS(C)(=O)=O)CC3)ccc2Br)nc1 [Example A-120, N-[1-(3-bromo-5′-methyl-2,2′-bipyridin-6-yl)piperidin-4-yl]methanesulfonamide] | 40 | 93 | 29 |
| CCS(=O)(=O)NC1CCN(c2cc(-c3ncc(C)cc3C)c(Cl)cn2)CC1 [Example A-121, N-[1-(5′-chloro-3,5-dimethyl-2,4′-bipyridin-2′-yl)piperidin-4-yl]ethanesulfonamide] | 11.6 | 101 | 4.25 |
| Cc1cnc(-c2cc(N3CCC(NC(=O)CCS(C)(=O)=O)CC3)ncc2Cl)c(C)c1 [Example A-122, N-[1-(5′-chloro-3,5-dimethyl-2,4′-bipyridin-2′-yl)piperidin-4-yl]-3-(methylsulfonyl)propanamide] | 14.7 | 103 | 5.49 |
| COCCS(=O)(=O)NC1CCN(c2ccc(Cl)c(-c3ccccn3)n2)CC1 [Example A-123, N-[1-(3-chloro-2,2′-bipyridin-6-yl)piperidin-4-yl]-2-methoxyethanesulfonamide] | 26.7 | 90.4 | 14.1 |
| Cc1cc(C#N)cnc1-c1cc(N2CCC(NS(C)(=O)=O)CC2)ncc1Cl [Example A-125, N-[1-(5′-chloro-5-cyano-3-methyl-2,4′-bipyridin-2′-yl)piperidin-4-yl]methanesulfonamide] | 95.6 | 82.3 | 32.3 |
| O=S(=O)(CCO)NC1CCN(c2ccc(Cl)c(-c3ccccn3)n2)CC1 [Example A-126, N-[1-(3-chloro-2,2′-bipyridin-6-yl)piperidin-4-yl]-2-hydroxyethanesulfonamide] | 15.2 | 96.1 | 10.3 |
| Cc1cnc(-c2cc(N3CCC(NS(=O)(=O)C4CC4)CC3)ncc2Cl)c(C)c1 [Example A-127, N-[1-(5′-chloro-3,5-dimethyl-2,4′-bipyridin-2′-yl)piperidin-4-yl]cyclopropanesulfonamide] | 11.5 | 97.8 | 5.03 |
| CS(=O)(=O)CCC(=O)NC1CCN(c2ccc(Cl)c(-c3ccccn3)n2)CC1 [Example A-128, N-[1-(3-chloro-2,2′-bipyridin-6-yl)piperidin-4-yl]-3-(methylsulfonyl)propanamide] | 31.3 | 95 | 15.2 |
| CN(C)CC(=O)NC1CCN(c2ccc(Cl)c(-c3ccccn3)n2)CC1 [Example A-129, N-(1-(3-chloro-[2,2′-bipyridin]-6-yl)piperidin-4-yl)-2-(dimethylamino)acetamide] | 54.3 | 88.4 | 8.12 |
| O=C(CCO)NC1CCN(c2ccc(Cl)c(-c3ccccn3)n2)CC1 [Example A-130, N-[1-(3-chloro-2,2′-bipyridin-6-yl)piperidin-4-yl]-3-hydroxypropanamide] | – | 81.3 | 35.5 |
| CC(C)(O)CC(=O)NC1CCN(c2ccc(Cl)c(-c3ccccn3)n2)CC1 [Example A-131, N-[1-(3-chloro-2,2′-bipyridin-6-yl)piperidin-4-yl]-3-hydroxy-3-methylbutanamide] | 30.5 | 92.7 | 20.7 |
| CCS(=O)(=O)NC1CCN(c2ccc(Cl)c(-c3ccccn3)n2)CC1 [Example A-132, N-[1-(3-chloro-2,2′-bipyridin-6-yl)piperidin-4-yl]ethanesulfonamide] | 38.2 | 92 | 33.7 |
| O=S(=O)(NC1CCN(c2ccc(Cl)c(-c3ccccn3)n2)CC1)C1CC1 [Example A-133, N-[1-(3-chloro-2,2′-bipyridin-6-yl)piperidin-4-yl]cyclopropanesulfonamide] | – | 94.3 | 11.7 |
| Cc1cnc(-c2cc(N3CCC(S(C)(=O)=O)CC3)ncc2Cl)c(C)c1 [Example A-134, 5′-chloro-3,5-dimethyl-2′-[4-(methylsulfonyl)piperidin-1-yl]-2,4′-bipyridine] | 114 | 80.8 | 37.7 |
